Results taken from ChEMBL document CHEMBL1141370, “Biologically active triterpenoid saponins from Ardisia japonica” (J Nat Prod, 2007).

Tests used:
Assay type in all cases: cell-based
[1] = Cytotoxicity against human KATO3 cell line by MTT assay
A549 = test: Cytotoxicity against human A549 cell line by MTT assay
HL-60 = test: Cytotoxicity against human HL60 cell line by MTT assay

Row | Compound | IC50 [1] | IC50 (A549) | IC50 (HL-60)
1 | C[C@@H]1O[C@@H](O[C@H]2[C@H](O[C@H]3CO[C@@H](O[C@H]4CC[C@]5(C)[C@H]6CC[C@]78OC[C@@]9(CC[C@](C)(C=O)C[C@H]97)[C@H](O)C[C@@]8(C)[C@]6(C)CC[C@H]5C4(C)C)[C@H](O[C@@H]4O[C@H](CO)[C@@H](O)[C@H](O)[C@H]4O)[C@H]3O)O[C@H](CO)[C@@H](O)[C@@H]2O)[C@H](O)[C@H](O)[C@H]1O [ARDISIACRISPIN B] | 1.2 µM | 3.6 µM | 3.2 µM
2 | CC1(C)[C@@H](O[C@@H]2OC[C@H](O[C@@H]3O[C@H](CO)[C@@H](O)[C@H](O)[C@H]3O)[C@H](O)[C@H]2O[C@@H]2O[C@H](CO)[C@@H](O)[C@H](O)[C@H]2O)CC[C@]2(C)[C@H]3CC[C@]45OC[C@@]6(CC[C@](C)(CO)C[C@H]64)[C@H](O)C[C@@]5(C)[C@]3(C)CC[C@@H]12 [ARDISIANOSIDE E] | 0.4 µM | 3.1 µM | 3.4 µM
3 | CC1(C)CC[C@]23CO[C@@]4(CC[C@@H]5[C@@]6(C)CC[C@H](O[C@@H]7OC[C@H](O[C@@H]8O[C@H](CO)[C@@H](O)[C@H](O)[C@H]8O[C@@H]8OC[C@@H](O)[C@H](O)[C@H]8O)[C@H](O)[C@H]7O)C(C)(C)[C@@H]6CC[C@@]5(C)[C@]4(C)C[C@H]2O)[C@@H]3C1 [ARDISIANOSIDE D] | 1.5 µM | 24.2 µM | 3.5 µM
4 | C[C@@H]1O[C@@H](O[C@H]2[C@H](O[C@H]3CO[C@@H](O[C@H]4CC[C@]5(C)[C@H]6CC[C@]78OC[C@@]9(CC[C@](C)(C=O)C[C@H]97)[C@H](O)C[C@@]8(C)[C@]6(C)CC[C@H]5C4(C)C)[C@H](O)[C@H]3O)O[C@H](CO)[C@@H](O)[C@@H]2O)[C@H](O)[C@H](O)[C@H]1O [CYCLAMIRETIN A] | 1.7 µM | 29.2 µM | 18.1 µM
5 | CC1(C)[C@@H](O[C@@H]2OC[C@H](O[C@@H]3O[C@H](CO)[C@@H](O)[C@H](O[C@@H]4O[C@H](CO)[C@@H](O)[C@H](O)[C@H]4O)[C@H]3O[C@@H]3OC[C@@H](O)[C@H](O)[C@H]3O)[C@H](O)[C@H]2O[C@@H]2O[C@H](CO)[C@@H](O)[C@H](O)[C@H]2O)CC[C@]2(C)[C@H]3CC[C@]45OC[C@@]6(CC[C@](C)(C=O)C[C@H]64)[C@H](O)C[C@@]5(C)[C@]3(C)CC[C@@H]12 [CYCLAMIN] | 0.3 µM | 3.3 µM | 3 µM
6 | CC1(C)CC[C@]23CO[C@@]4(CC[C@@H]5[C@@]6(C)CC[C@H](O[C@@H]7OC[C@H](O[C@@H]8O[C@H](CO)[C@@H](O)[C@H](O[C@@H]9O[C@H](CO)[C@@H](O[C@@H]%10O[C@H](CO)[C@@H](O)[C@H](O)[C@H]%10O)[C@H](O[C@@H]%10O[C@H](CO)[C@@H](O)[C@H](O)[C@H]%10O)[C@H]9O)[C@H]8O[C@@H]8OC[C@@H](O)[C@H](O)[C@H]8O)[C@H](O)[C@H]7O[C@@H]7O[C@H](CO)[C@@H](O)[C@H](O)[C@H]7O)C(C)(C)[C@@H]6CC[C@@]5(C)[C@]4(C)C[C@H]2O)[C@@H]3C1 [ARDISIANOSIDES A] | 0.4 µM | 6 µM | 2.7 µM
7 | C[C@@H]1O[C@@H](O[C@H]2[C@H](O[C@H]3CO[C@@H](O[C@H]4CC[C@]5(C)[C@H]6CC[C@]78OC[C@@]9(CC[C@](C)(C(=O)O)C[C@H]97)[C@H](O)C[C@@]8(C)[C@]6(C)CC[C@H]5C4(C)C)[C@H](O[C@@H]4O[C@H](CO)[C@@H](O)[C@H](O)[C@H]4O)[C@H]3O)O[C@H](CO)[C@@H](O)[C@@H]2O)[C@H](O)[C@H](O)[C@H]1O [ARDISIAMAMILLOSIDE F] | > 100 µM | > 100 µM | > 100 µM
8 | C[C@@H]1O[C@@H](O[C@H]2[C@H](O[C@H]3CO[C@@H](O[C@H]4CC[C@]5(C)[C@H]6CC[C@]78OC[C@@]9(CCC(C)(C)C[C@H]97)[C@H](O)C[C@@]8(C)[C@]6(C)CC[C@H]5C4(C)C)[C@H](O[C@@H]4O[C@H](CO)[C@@H](O)[C@H](O)[C@H]4O)[C@H]3O)O[C@H](CO)[C@@H](O)[C@@H]2O)[C@H](O)[C@H](O)[C@H]1O | 0.4 µM | 3.7 µM | 1.9 µM
9 | C[C@@H]1O[C@@H](O[C@H]2[C@H](O[C@H]3CO[C@@H](O[C@H]4CC[C@]5(C)[C@H]6CC[C@]78OC[C@@]9(CC[C@](C)(O)C[C@H]97)[C@H](O)C[C@@]8(C)[C@]6(C)CC[C@H]5C4(C)C)[C@H](O[C@@H]4O[C@H](CO)[C@@H](O)[C@H](O)[C@H]4O)[C@H]3O)O[C@H](CO)[C@@H](O)[C@@H]2O)[C@H](O)[C@H](O)[C@H]1O [ARDISIANOSIDE G] | > 100 µM | > 100 µM | > 100 µM
10 | C[C@@H]1O[C@@H](O[C@H]2[C@H](O[C@H]3CO[C@@H](O[C@H]4CC[C@]5(C)[C@H]6CC=C7[C@@H]8C[C@@](C)(CO)CC[C@]8(CO)[C@H](O)C[C@@]7(C)[C@]6(C)CC[C@H]5C4(C)C)[C@H](O[C@@H]4O[C@H](CO)[C@@H](O)[C@H](O)[C@H]4O)[C@H]3O)O[C@H](CO)[C@@H](O)[C@@H]2O)[C@H](O)[C@H](O)[C@H]1O [ARDISIAMAMILLOSEDE C] | > 100 µM | > 100 µM | > 100 µM
11 | C[C@@H]1O[C@@H](O[C@H]2[C@H](O[C@H]3CO[C@@H](O[C@H]4CC[C@]5(C)[C@H]6CC[C@]78OC(=O)[C@@]9(CC[C@](C)(C=O)C[C@H]97)[C@H](O)C[C@@]8(C)[C@]6(C)CC[C@H]5C4(C)C)[C@H](O[C@@H]4O[C@H](CO)[C@@H](O)[C@H](O)[C@H]4O)[C@H]3O)O[C@H](CO)[C@@H](O)[C@@H]2O)[C@H](O)[C@H](O)[C@H]1O [ARDISIANOSIDE J] | 33.5 µM | 32.9 µM | 45.6 µM
12 | CC1(C)CC[C@]23C(=O)O[C@@]4(CC[C@@H]5[C@@]6(C)CC[C@H](O[C@@H]7OC[C@H](O[C@@H]8O[C@H](CO)[C@@H](O)[C@H](O[C@@H]9O[C@H](CO)[C@@H](O[C@@H]%10O[C@H](CO)[C@@H](O)[C@H](O)[C@H]%10O)[C@H](O[C@@H]%10O[C@H](CO)[C@@H](O)[C@H](O)[C@H]%10O)[C@H]9O)[C@H]8O[C@@H]8OC[C@@H](O)[C@H](O)[C@H]8O)[C@H](O)[C@H]7O[C@@H]7O[C@H](CO)[C@@H](O)[C@H](O)[C@H]7O)C(C)(C)[C@@H]6CC[C@@]5(C)[C@]4(C)C[C@H]2O)[C@@H]3C1 [ARDISIANOSIDE H] | 8.3 µM | 33.4 µM | 28.4 µM
13 | C[C@@H]1O[C@@H](O[C@H]2[C@H](O[C@H]3CO[C@@H](O[C@H]4CC[C@]5(C)[C@H]6CC[C@]78OC[C@@]9(CC[C@](C)(C=O)C[C@H]97)C(=O)C[C@@]8(C)[C@]6(C)CC[C@H]5C4(C)C)[C@H](O)[C@H]3O)O[C@H](CO)[C@@H](O)[C@@H]2O)[C@H](O)[C@H](O)[C@H]1O [ARDISIAMAMILLOSIDE H] | 21.5 µM | 37.2 µM | 30.8 µM
14 | CC1(C)CC[C@]23CO[C@@]4(CC[C@@H]5[C@@]6(C)CC[C@H](O[C@@H]7OC[C@H](O[C@@H]8O[C@H](CO)[C@@H](O)[C@H](O[C@@H]9O[C@H](CO)[C@@H](O)[C@H](O[C@@H]%10O[C@H](CO)[C@@H](O)[C@H](O)[C@H]%10O)[C@H]9O)[C@H]8O[C@@H]8OC[C@@H](O)[C@H](O)[C@H]8O)[C@H](O)[C@H]7O[C@@H]7O[C@H](CO)[C@@H](O)[C@H](O)[C@H]7O)C(C)(C)[C@@H]6CC[C@@]5(C)[C@]4(C)C[C@H]2O)[C@@H]3C1 [ARDISIANOSIDE B] | 0.3 µM | 3.1 µM | 2.4 µM
15 | CC1(C)[C@@H](O[C@@H]2OC[C@H](O[C@@H]3O[C@H](CO)[C@@H](O)[C@H](O[C@@H]4O[C@H](CO)[C@@H](O)[C@H](O)[C@H]4O)[C@H]3O[C@@H]3OC[C@@H](O)[C@H](O)[C@H]3O)[C@H](O)[C@H]2O[C@@H]2O[C@H](CO)[C@@H](O)[C@H](O)[C@H]2O)CC[C@]2(C)[C@H]3CC[C@]45OC[C@@]6(CC[C@](C)(CO)C[C@H]64)[C@H](O)C[C@@]5(C)[C@]3(C)CC[C@@H]12 [ARDISIANOSIDE F] | 38.3 µM | 36.2 µM | > 100 µM
16 | C[C@@H]1O[C@@H](O[C@H]2[C@H](O[C@H]3CO[C@@H](O[C@H]4CC[C@]5(C)[C@H]6CC[C@]78OC[C@@]9(CC[C@](C)(CO)C[C@H]97)[C@H](O)C[C@@]8(C)[C@]6(C)CC[C@H]5C4(C)C)[C@H](O[C@@H]4O[C@H](CO)[C@@H](O)[C@H](O)[C@H]4O)[C@H]3O)O[C@H](CO)[C@@H](O)[C@@H]2O)[C@H](O)[C@H](O)[C@H]1O [ARDISICRENOSIDE A] | 14.5 µM | > 100 µM | > 100 µM
17 | C[C@@H]1O[C@@H](O[C@H]2[C@H](O[C@H]3CO[C@@H](O[C@H]4CC[C@]5(C)[C@H]6CC=C7[C@@H]8C[C@@](C)(CO)CC[C@]8(CO)[C@@H]8O[C@@H]8[C@@]7(C)[C@]6(C)CC[C@H]5C4(C)C)[C@H](O[C@@H]4O[C@H](CO)[C@@H](O)[C@H](O)[C@H]4O)[C@H]3O)O[C@H](CO)[C@@H](O)[C@@H]2O)[C@H](O)[C@H](O)[C@H]1O [ARDISIANOSIDE K] | > 100 µM | > 100 µM | > 100 µM
18 | COc1cc([C@@H]2c3cc4c(cc3[C@@H](O[C@@H]3O[C@@H]5CO[C@@H](C)O[C@H]5[C@H](O)[C@H]3O)[C@H]3COC(=O)[C@H]23)OCO4)cc(OC)c1O [ETOPOSIDE] | 0.1 µM | 20.9 µM | 0.3 µM
19 | CC1(C)[C@@H](O[C@@H]2OC[C@H](O[C@@H]3O[C@H](CO)[C@@H](O)[C@H](O)[C@H]3O[C@@H]3OC[C@@H](O)[C@H](O)[C@H]3O)[C@H](O)[C@H]2O)CC[C@]2(C)[C@H]3CC[C@]45OC[C@@]6(CC[C@](C)(C=O)C[C@H]64)[C@H](O)C[C@@]5(C)[C@]3(C)CC[C@@H]12 [PRIMULANIN] | 3.3 µM | 27.7 µM | 24.7 µM
20 | C[C@@H]1O[C@@H](O[C@H]2[C@H](O[C@H]3CO[C@@H](O[C@H]4CC[C@]5(C)[C@H]6CC[C@]78OC[C@@]9(CCC(C)(C)C[C@H]97)[C@H](O)C[C@@]8(C)[C@]6(C)CC[C@H]5C4(C)C)[C@H](O)[C@H]3O)O[C@H](CO)[C@@H](O)[C@@H]2O)[C@H](O)[C@H](O)[C@H]1O [ARDISIANOSIDE C] | 1.3 µM | 3.2 µM | 2.7 µM
